{
  "source": "patent US20240197666A1",
  "about": "“DITERPENOID COMPOUNDS THAT ACT ON PROTEIN KINASE C (PKC)” (K-Gen Therapeutics, Inc., priority 2021, published 2024)",
  "key": {"[1]": {"tested_on": "phosphorylation of PKCμ, PKCδ and Erk1/2 in A549 lung cancer cells", "assay": "Western blot of activation of PKC and downstream target protein in A549 cells", "assay_type": "cell-based", "settings": "0.3 μM, 30 minutes", "protocol": "According to the methods described in patent (WO/2017/083783) A549 lung cancer cells (˜3 million cells) were seeded in 10 cm tissue culture dishes (or ˜1 million cells in 6 cm dish) and grown overnight. Cells were then treated with different drugs at indicated concentrations for 30 minutes. Cell lysate preparation, protein quantitation, SDS-PAGE, and Western blotting procedures are described (WO/2017/083783). β-actin or Vinculin was used as loading controls. Imagequant LAS4000 (GE) was used to scan membranes if secondary antibodies anti-mouse IgG HRP conjugate or anti-rabbit IgG HRP conjugate (dilutions from 1:2000-1:10000) were used. For ProteinSimple Wes system, manufacture's procedure was followed (ProteinSimple 12-230 kDa Wes Separation Module) for sample preparation, loading, running, and data analysis.\nPhosphorylation of these sites has been linked to acute activation or catalytic activity of the PKC isoforms and Erk1/2. High level of phosphorylation indicates strong activation.\nA subset of the diterpenoid compounds with good binding affinity to novel PKC isoforms and PKCμ was tested at two different concentrations in A549 cells to assess activation of PKCμ, PKCδ, and Erk1/2 by Western blot analysis. In addition to the phospho-specific antibodies described above, an additional phospho-specific antibody P-PKCδ (S299) (Abcam cat #133456) was also used. This antibody has been shown in the literature (Durgan et al., FEBS Lett. 2007, 581(18):3377-81, Novel phosphorylation site markers of protein kinase C delta activation) to be able to detect activation of PKCδ. K-101 (prostratin, 1 μM) was included as reference compounds."}, "[2]": {"assay": "Pharmacokinetic study, intravenous bolus injection in rats", "assay_type": "in vivo, rat", "settings": "for AUClast / C0 / CL / MRTInf / Vss / Vz / t1/2: rat plasma, bolus injection", "protocol": "Plasma samples were taken at 1 minute, 5 minutes, 15 minutes, 30 minutes, 1 hour, 2 hours, 4 hours, 7 hours, and 24 hours. The drug concentrations at each time point were determined by LC-MS. The results of drug concentrations and pharmacokinetic parameters are presented in the Table 6 and Table 7, respectively, below."}, "C1b domain of human PKCα": {"molecular_target": "T1, C1b domain of human PKCα (Homo sapiens, UniProt P17252)", "T1 construct": "Genes encoding C1b domains of human PKCα, δ, ε, θ, and PKD1 (PKCμ) were synthesized; made in house; host or cells: E. coli BL21(DE3)", "assay": "biochemical", "assay_type": "binding", "settings": "3H-PDBu competition"}, "C1b domain of human PKCθ": {"molecular_target": "T2, C1b domain of human PKCθ (Homo sapiens, UniProt Q04759)", "T2 construct": "Genes encoding C1b domains of human PKCα, δ, ε, θ, and PKD1 (PKCμ) were synthesized; made in house; host or cells: E. coli BL21(DE3)", "T2 sequence (Q04759 231-281 limits assumed)": "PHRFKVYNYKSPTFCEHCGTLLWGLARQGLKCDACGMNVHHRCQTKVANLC", "assay": "biochemical", "assay_type": "binding", "settings": "3H-PDBu competition", "summary_of_the_method": "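GST-C1b (human, E. coli-expressed) + 3H-PDBu + compound; 37° C 10 min shaking, then ice 20 min. Filter capture, scintillation count. IC50 → Ki via Cheng-Prusoff, per-prep measured Kd.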"}},
  "data": [
    {"molecule": "CC1=C[C@H]2[C@@]3(O)[C@H](C)C[C@]4(OC(=O)[C@@H](N)CC5CCCCC5)[C@H]([C@@H]3C=C(CO)C[C@]2(O)C1=O)C4(C)C", "values": [
      {"measurement": "phosphorylation of PKCμ, PKCδ and Erk1/2", "setting": "[1]", "result": "induced high levels of phosphorylation"},
      {"measurement": "Concentration in Rat Plasma after Bolus Injection, Mean", "setting": "[2]; Dose 0.1 mg/kg iv, 0.0167 hour post dose", "result": 216.0, "unit": "ng/mL"},
      {"measurement": "Concentration in Rat Plasma after Bolus Injection, Mean", "setting": "[2]; Dose 0.1 mg/kg iv, 0.0833 hour post dose", "result": 49.2, "unit": "ng/mL"},
      {"measurement": "Concentration in Rat Plasma after Bolus Injection, Mean", "setting": "[2]; Dose 0.1 mg/kg iv, 0.25 hour post dose", "result": 28.7, "unit": "ng/mL"},
      {"measurement": "Concentration in Rat Plasma after Bolus Injection, Mean", "setting": "[2]; Dose 0.1 mg/kg iv, 0.5 hour post dose", "result": 19.4, "unit": "ng/mL"},
      {"measurement": "Concentration in Rat Plasma after Bolus Injection, Mean", "setting": "[2]; Dose 0.1 mg/kg iv, 1 hour post dose", "result": 14.6, "unit": "ng/mL"},
      {"measurement": "Concentration in Rat Plasma after Bolus Injection, Mean", "setting": "[2]; Dose 0.1 mg/kg iv, 2 hour post dose", "result": 5.0, "unit": "ng/mL"},
      {"measurement": "Concentration in Rat Plasma after Bolus Injection, Mean", "setting": "[2]; Dose 0.1 mg/kg iv, 4 hour post dose", "result": 1.0, "unit": "ng/mL"},
      {"measurement": "Concentration in Rat Plasma after Bolus Injection, Mean", "setting": "[2]; Dose 0.1 mg/kg iv, 7 hour post dose", "result": "<1", "unit": "ng/mL"},
      {"measurement": "Concentration in Rat Plasma after Bolus Injection, Mean", "setting": "[2]; Dose 0.1 mg/kg iv, 24 hour post dose", "result": "<1", "unit": "ng/mL"},
      {"measurement": "Concentration in Rat Plasma after Bolus Injection, Mean", "setting": "[2]; Dose 0.2 mg/kg iv, 0.0167 hour post dose", "result": 334.0, "unit": "ng/mL"},
      {"measurement": "Concentration in Rat Plasma after Bolus Injection, Mean", "setting": "[2]; Dose 0.2 mg/kg iv, 0.0833 hour post dose", "result": 102.0, "unit": "ng/mL"},
      {"measurement": "Concentration in Rat Plasma after Bolus Injection, Mean", "setting": "[2]; Dose 0.2 mg/kg iv, 0.25 hour post dose", "result": 65.0, "unit": "ng/mL"},
      {"measurement": "Concentration in Rat Plasma after Bolus Injection, Mean", "setting": "[2]; Dose 0.2 mg/kg iv, 0.5 hour post dose", "result": 43.6, "unit": "ng/mL"},
      {"measurement": "Concentration in Rat Plasma after Bolus Injection, Mean", "setting": "[2]; Dose 0.2 mg/kg iv, 1 hour post dose", "result": 37.6, "unit": "ng/mL"},
      {"measurement": "Concentration in Rat Plasma after Bolus Injection, Mean", "setting": "[2]; Dose 0.2 mg/kg iv, 2 hour post dose", "result": 29.1, "unit": "ng/mL"},
      {"measurement": "Concentration in Rat Plasma after Bolus Injection, Mean", "setting": "[2]; Dose 0.2 mg/kg iv, 4 hour post dose", "result": 6.0, "unit": "ng/mL"},
      {"measurement": "Concentration in Rat Plasma after Bolus Injection, Mean", "setting": "[2]; Dose 0.2 mg/kg iv, 7 hour post dose", "result": "<1", "unit": "ng/mL"},
      {"measurement": "Concentration in Rat Plasma after Bolus Injection, Mean", "setting": "[2]; Dose 0.2 mg/kg iv, 24 hour post dose", "result": "<1", "unit": "ng/mL"},
      {"measurement": "AUClast", "setting": "[2]; 0.1 mg/kg", "result": 48.3, "unit": "ng·h/mL"},
      {"measurement": "C0", "setting": "[2]; 0.1 mg/kg", "result": 314, "unit": "ng/mL"},
      {"measurement": "CL", "setting": "[2]; 0.1 mg/kg", "result": 32.9, "unit": "mL/min/kg"},
      {"measurement": "MRTInf", "setting": "[2]; 0.1 mg/kg", "result": 0.873, "unit": "h"},
      {"measurement": "Vss", "setting": "[2]; 0.1 mg/kg", "result": 1.73, "unit": "L/kg"},
      {"measurement": "Vz", "setting": "[2]; 0.1 mg/kg", "result": 2.44, "unit": "L/kg"},
      {"measurement": "t1/2", "setting": "[2]; 0.1 mg/kg", "result": 0.857, "unit": "h"},
      {"measurement": "AUClast", "setting": "[2]; 0.2 mg/kg", "result": 119, "unit": "ng·h/mL"},
      {"measurement": "C0", "setting": "[2]; 0.2 mg/kg", "result": 450, "unit": "ng/mL"},
      {"measurement": "CL", "setting": "[2]; 0.2 mg/kg", "result": 21.5, "unit": "mL/min/kg"},
      {"measurement": "MRTInf", "setting": "[2]; 0.2 mg/kg", "result": 2.93, "unit": "h"},
      {"measurement": "Vss", "setting": "[2]; 0.2 mg/kg", "result": 2.77, "unit": "L/kg"},
      {"measurement": "Vz", "setting": "[2]; 0.2 mg/kg", "result": 3.25, "unit": "L/kg"},
      {"measurement": "t1/2", "setting": "[2]; 0.2 mg/kg", "result": 2.29, "unit": "h"},
      {"measurement": "Ki", "setting": "C1b domain of human PKCα", "result": "60 to 100", "unit": "nM"}
    ]},
    {"molecule": "CC1=C[C@H]2[C@@]3(O)[C@H](C)C[C@]4(OC(=O)[C@@H](N)C5Cc6ccccc6C5)[C@H]([C@@H]3C=C(CO)C[C@]2(O)C1=O)C4(C)C", "values": [
      {"measurement": "phosphorylation of PKCμ, PKCδ and Erk1/2", "setting": "[1]", "result": "induced high levels of phosphorylation"}
    ]},
    {"molecule": "CC1=C[C@H]2[C@@]3(O)[C@H](C)C[C@]4(OC(=O)[C@@H](N)[C@]56C[C@H]7C[C@H](C[C@H](C7)C5)C6)[C@H]([C@@H]3C=C(CO)C[C@]2(O)C1=O)C4(C)C", "values": [
      {"measurement": "Ki", "setting": "C1b domain of human PKCα", "result": "10 to 30", "unit": "nM"}
    ]},
    {"molecule": "CC1=C[C@H]2[C@@]3(O)[C@H](C)C[C@]4(OC(=O)[C@H](N)CCCCCCc5ccccc5)[C@H]([C@@H]3C=C(CO)C[C@]2(O)C1=O)C4(C)C", "values": [
      {"measurement": "Ki", "setting": "C1b domain of human PKCθ", "result": "10 to 30", "unit": "nM"}
    ]}
  ]
}
